{"source": "paper PMC8981980", "about": "(Journal of medicinal chemistry, 2022)", "key": {"[1]": {"conditions": "cited from earlier work"}, "CSC stemness": {"test_system": "CSC stemness", "conditions": "clonogenic colony formation assay; cited from earlier work"}, "CHD1L": {"target": "T1, CHD1L (Homo sapiens, UniProt Q86WJ1)", "T1 sequence (Q86WJ1 41-540 limits assumed)": "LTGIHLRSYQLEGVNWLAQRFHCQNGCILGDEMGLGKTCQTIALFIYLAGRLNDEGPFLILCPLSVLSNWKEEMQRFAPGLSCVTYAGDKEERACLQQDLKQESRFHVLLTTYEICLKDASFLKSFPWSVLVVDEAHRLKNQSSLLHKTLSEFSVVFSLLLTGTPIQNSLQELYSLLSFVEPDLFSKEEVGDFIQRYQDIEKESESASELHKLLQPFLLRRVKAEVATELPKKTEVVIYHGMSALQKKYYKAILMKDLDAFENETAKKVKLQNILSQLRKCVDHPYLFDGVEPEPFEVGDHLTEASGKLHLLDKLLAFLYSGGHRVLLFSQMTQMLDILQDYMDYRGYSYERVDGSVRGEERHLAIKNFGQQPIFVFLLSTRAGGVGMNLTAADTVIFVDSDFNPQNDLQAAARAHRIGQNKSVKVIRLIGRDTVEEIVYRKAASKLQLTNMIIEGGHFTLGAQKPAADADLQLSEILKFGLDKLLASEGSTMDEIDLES", "assay": "SAR summary from cat-CHD1L inhibition and cell-based assays", "conditions": "SAR statement relative to parent / 1-carbon analogs"}, "[2]": {"assay": "In vitro mouse microsomal stability", "conditions": "compared with 6.0 / other tested CHD1Li"}, "SW620 tumor organoids": {"test_system": "SW620 tumor organoids", "assay": "SW620 tumor organoid viability", "format": "cell-based", "conditions": "compared to 6.1, 6.2 and 6.3; SI Table S1"}, "[3]": {"test_system": "HCT116 M-Phenotype tumor organoids (VimPro-GFP / EcadPro-RFP)", "assay": "EMT dual-reporter 3D high-content imaging, HCT116 M-Phenotype tumor organoids", "format": "cell-based", "conditions": "as treatment dose increases"}, "[4]": {"test_system": "SW620 isolated M-Phenotype flank tumors", "assay": "Xenograft antitumor efficacy study", "format": "in vivo, athymic nude mice"}}, "note": "“Also recorded” adds a separate entry of the source."}
{"smiles": "Cc1cc(Nc2ccc(NC(=O)Cc3cccs3)cc2)nc(N2CCCC2)n1", "note": "[6.0, N-(4-((6-methyl-2-(pyrrolidine-1-yl)pyrimidin-4-yl)amino)phenyl)-2-(thiophen-2-yl)acetamide]", "values": [{"measurement": "maximum tolerated dose", "setting": "[1]; intraperitoneal (IP) daily over five days", "value": 50, "unit": "mg/kg"}, {"measurement": "liver toxicity", "setting": "[1]; mice, 50 mg/kg IP daily over five days", "value": "does not display any liver toxicity"}, {"measurement": "CSC stemness", "setting": "CSC stemness", "value": "significantly inhibits CSC stemness"}]}
{"smiles": "Cc1nc(N2CCCC2)nc(Nc2ccc(NC(=O)Cc3cccs3)cc2)c1F", "note": "[6.1, N-(4-((5-fluoro-6-methyl-2-(pyrrolidin-1-yl)pyrimidin-4-yl)amino)phenyl)-2-(thiophen-2-yl)acetamide]", "values": [{"measurement": "biological activity (cat-CHD1L inhibition and cell-based models)", "setting": "CHD1L", "value": "loss of inhibitor activity; also recorded: significant loss in activity"}]}
{"smiles": "O=C(Cc1cccs1)Nc1ccc(Nc2nc(N3CCCC3)ncc2F)cc1", "note": "[6.2, N-(4-((5-fluoro-2-(pyrrolidin-1-yl)pyrimidin-4-yl)amino)phenyl)-2-(thiophen-2-yl)acetamide]", "values": [{"measurement": "biological activity (cat-CHD1L inhibition and cell-based models)", "setting": "CHD1L", "value": "loss of inhibitor activity"}]}
{"smiles": "Cc1nc(N2CCCC2)nc(N(C)c2ccc(NC(=O)Cc3cccs3)cc2)c1F", "note": "[6.3, N-(4-((5-fluoro-6-methyl-2-(pyrrolidin-1-yl)pyrimidin-4-yl)(methyl)amino)phenyl)-2-(thiophen-2-yl)acetamide]", "values": [{"measurement": "biological activity (cat-CHD1L inhibition and cell-based models)", "setting": "CHD1L", "value": "loss of inhibitor activity; also recorded: diminished biological activity"}]}
{"smiles": "Cc1cc(Nc2ccc(NC(=O)c3c[nH]c4ccccc34)cc2)nc(N2CCCC2)n1", "note": "[6.4, N-(4-((6-methyl-2-(pyrrolidin-1-yl)pyrimidin-4-yl)amino)phenyl)-1H-indole-3-carboxamide]", "values": [{"measurement": "metabolic stability to mouse liver microsomes", "setting": "[2]", "value": "increased the metabolic stability"}, {"measurement": "cell-based antitumor activity (potency)", "setting": "SW620 tumor organoids", "value": "maintained potency"}]}
{"smiles": "Cc1cc(Nc2ccc(NC(=O)Cc3c[nH]c4ccccc34)cc2)nc(N2CCCC2)n1", "note": "[6.5, 2-(1H-indol-3-yl)-N-(4-((6-methyl-2-(pyrrolidin-1-yl)pyrimidin-4-yl)amino)phenyl)acetamide]", "values": [{"measurement": "metabolic stability to mouse liver microsomes", "setting": "[2]", "value": "increased the metabolic stability"}, {"measurement": "EcadPro-RFP promoter activity", "setting": "[3]", "value": "upregulation"}, {"measurement": "VimPro-GFP promoter activity", "setting": "[3]", "value": "marked downregulation"}]}
{"smiles": "Cc1cc(Nc2ccc(NC(=O)CCc3c[nH]c4ccccc34)cc2)nc(N2CCCC2)n1", "note": "[6.6, 3-(1H-indol-3-yl)-N-(4-((6-methyl-2-(pyrrolidin-1-yl)pyrimidin-4-yl)amino)phenyl) propanamide]", "values": [{"measurement": "biological activity (cat-CHD1L inhibition and cell-based models)", "setting": "CHD1L", "value": "loss of activity"}]}
{"smiles": "Cc1cc(Nc2ccc(NC(=O)CCCc3c[nH]c4ccccc34)cc2)nc(N2CCCC2)n1", "note": "[6.7, 4-(1H-indol-3-yl)-N-(4-((6-methyl-2-(pyrrolidin-1-yl)pyrimidin-4-yl)amino)phenyl)butanamide]", "values": [{"measurement": "biological activity (cat-CHD1L inhibition and cell-based models)", "setting": "CHD1L", "value": "loss of activity"}]}
{"smiles": "Cc1cc(Nc2ccc(NC(=O)/C=C/c3c[nH]c4ccccc34)cc2)nc(N2CCCC2)n1", "note": "[6.8, (E)-3-(1H-indol-3-yl)-N-(4-((6-methyl-2-(pyrrolidin-1-yl)pyrimidin-4-yl)amino)phenyl) acrylamide]", "values": [{"measurement": "biological activity (cat-CHD1L inhibition and cell-based models)", "setting": "CHD1L", "value": "restores activity"}]}
{"smiles": "COc1cnc(N2CCCC2)nc1Nc1ccc(NC(=O)Cc2cccs2)cc1", "note": "[6.10, N-(4-((5-methoxy-2-(pyrrolidin-1-yl)pyrimidin-4-yl)amino)phenyl)-2-(thiophen-2-yl)acetamide]", "values": [{"measurement": "biological activity (cat-CHD1L inhibition and cell-based models)", "setting": "CHD1L", "value": "significant loss in activity"}]}
{"smiles": "Cc1cc(Nc2ccc(NC(=O)Cc3cc(Br)cs3)cc2)nc(N2CCCC2)n1", "note": "[6.11, 2-(4-bromothiophen-2-yl)-N-(4-((6-methyl-2-(pyrrolidin-1-yl)pyrimidin-4-yl)amino)phenyl) acetamide]", "values": [{"measurement": "biological activity (cat-CHD1L inhibition and cell-based models)", "setting": "CHD1L", "value": "most promising in vitro biological activity"}, {"measurement": "metabolic stability to mouse liver microsomes", "setting": "[2]", "value": "most metabolically stable; also recorded: increased the metabolic stability"}, {"measurement": "tolerability / gross toxicity", "setting": "[4]; PO 75 mg/kg and 125 mg/kg 5-days/week over 30 days", "value": "no adverse gross toxicity"}, {"measurement": "tumor volume", "setting": "[4]; PO 75 mg/kg and 125 mg/kg 5-days/week over 30 days, from day 20, highly significant after 28 days, vs vehicle", "value": "significant decrease in tumor volume"}, {"measurement": "body weight", "setting": "[4]; during the treatment period, PO 28 days", "value": "increased body weight"}]}
{"smiles": "Cc1cc(Oc2ccc(NC(=O)Cc3cccs3)cc2)nc(Cl)n1", "note": "[6.12, N-(4-((2-chloro-6-methylpyrimidin-4-yl)oxy)phenyl)-2-(thiophen-2-yl)acetamide]", "values": [{"measurement": "biological activity (cat-CHD1L inhibition and cell-based models)", "setting": "CHD1L", "value": "significant loss of activity"}]}
{"smiles": "Cc1cc(Oc2ccc(NC(=O)Cc3cccs3)cc2)nc(N2CCCC2)n1", "note": "[6.13, N-(4-((6-methyl-2-(pyrrolidin-1-yl)pyrimidin-4-yl)oxy)phenyl)-2-(thiophen-2-yl)acetamide]", "values": [{"measurement": "biological activity (cat-CHD1L inhibition and cell-based models)", "setting": "CHD1L", "value": "significant loss of activity"}]}
{"smiles": "Cc1cc(Oc2ccc(NC(=O)c3c[nH]c4ccccc34)cc2)nc(N2CCCC2)n1", "note": "[6.14, N-(4-((6-methyl-2-(pyrrolidin-1-yl)pyrimidin-4-yl)oxy)phenyl)-1H-indole-3-carboxamide]", "values": [{"measurement": "biological activity (cat-CHD1L inhibition and cell-based models)", "setting": "CHD1L", "value": "significant loss of activity"}]}
{"smiles": "Cc1cc(Nc2ccc(NC(=O)Cc3cccs3)cc2)nc(N2CCOCC2)n1", "note": "[6.15, N-(4-((6-methyl-2-morpholinopyrimidin-4-yl)amino)phenyl)-2-(thiophen-2-yl)acetamide]", "values": [{"measurement": "biological activity (cat-CHD1L inhibition and cell-based models)", "setting": "CHD1L", "value": "significant loss in biological activity"}]}
{"smiles": "Cc1cc(Nc2ccc(NC(=O)Cc3cc(Cl)nc4ccccc34)cc2)nc(N2CCCC2)n1", "note": "[6.31]", "values": [{"measurement": "metabolic stability to mouse liver microsomes", "setting": "[2]", "value": "increased the metabolic stability"}]}
